Reference: US20050070594A1, “Use of angiotensin II receptor antagonists” (Boehringer Ingelheim International GmbH, priority 2003, published 2005)

Columns and labels:
3T3-L1 adipocytes = assay: Lipid accumulation and differentiation of 3T3-L1 adipocytes (Oil Red-O staining); assay type: cell-based, mouse
Text: (§1) 3T3-L1 mouse preadipocytes are cultivated in DMEM (Dulbecco's modified eagle medium) with 10% foetal calf serum (FBS). PC12W cells are cultivated in DMEM with 5% FBS and 10% equine serum. In both cases the media contain 1% penicillin/streptomycin.
(§2) The differentiation of adipocytes is induced 2-3 days after cell confluence by adding a differentiating solution. This contains • 1 μmol/L of dexamethasone, • 0.5 mmol/L of 3-isobutyl-1-methylxanthine, • 1.67 μmol/L of insulin, and • 10% FBS.
(§3) Then the cells are stimulated for another 48 hours before finally being analysed (day 4).
Cells are washed with PBS and fixed with a 3.7% formaldehyde solution for 2 minutes. After fixing, the cells are stained for 1 hour at ambient temperature with a 0.5% stock solution of Oil Red-O in isopropanol diluted 3:2 with water. After washing, the cells are examined under a light microscope.

[1] = target: T1, human PPARgamma-ligand binding domain (LBD) (Homo sapiens, UniProt P37231); assay: SPA assay: displacement of 3H-labelled rosiglitazone from GST-PPARgamma-LBD; settings: NSB 217, Bmax 911
T1 sequence (P37231 205-505): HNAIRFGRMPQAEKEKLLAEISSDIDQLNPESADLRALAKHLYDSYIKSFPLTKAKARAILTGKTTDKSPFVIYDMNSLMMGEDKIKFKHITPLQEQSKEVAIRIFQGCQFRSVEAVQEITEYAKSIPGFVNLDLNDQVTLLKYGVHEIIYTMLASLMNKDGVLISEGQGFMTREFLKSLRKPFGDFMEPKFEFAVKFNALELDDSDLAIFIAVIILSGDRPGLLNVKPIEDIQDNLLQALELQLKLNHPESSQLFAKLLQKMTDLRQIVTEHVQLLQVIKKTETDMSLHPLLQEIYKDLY
T1 sequence (P19793 220-461 partner limits assumed): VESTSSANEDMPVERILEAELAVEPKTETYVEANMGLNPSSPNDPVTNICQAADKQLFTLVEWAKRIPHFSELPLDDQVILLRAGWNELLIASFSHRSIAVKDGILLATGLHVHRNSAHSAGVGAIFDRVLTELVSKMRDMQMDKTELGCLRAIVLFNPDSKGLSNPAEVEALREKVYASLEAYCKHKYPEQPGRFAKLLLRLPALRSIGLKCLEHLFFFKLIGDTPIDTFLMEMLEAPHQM
Description: Protein containing the human PPARgamma-ligand binding domain (LBD) is prepared as a GST fusion protein in E.coli and purified by affinity chromatography. To do this, a DNA section which codes for the amino acids 205-505 of the human PPARgamma2 transcription factor (cf. Genbank entry U79012) is subcloned via the additionally introduced restriction cutting sites BamH I and Xho I into the expression vector pGEX-4T-1 (Amersham) and the sequence of the section is monitored. […] The bacteria are pelleted after the induction and frozen in batches in PBS, pH 7.4. After opening up in a French Press, the dissolved GST-PPARgamma-LBD-fusion protein is purified using a GSTrap column (Pharmacia). Elution is carried out by the addition of 20 mM reduced glutathione. The GST-PPARgamma-LBD-protein fractions are desalinated using a HiTrap desalting column (Pharmacia) and the protein concentration is determined using a standard assay. Protein containing the human RXRalpha ligand binding domain (LBD) is prepared as a His tag fusion protein in E.coli and purified by affinity chromatography. To do this a DNA section which codes for the amino acids 220-461 of the human RXRalpha transcription factor (cf. Genbank entry NM_002957, nt 729-1457) is subcloned via the additionally introduced restriction cutting sites BamH I and Not I into the expression vector pET28c (Novagen) and the sequence of the section is monitored. […] The bacteria are pelleted after the expression and frozen in batches in PBS, pH 7.4. After opening up in a French Press, the dissolved His-RXRalpha-LBD-fusion protein is purified using a HiTrap chelating column (Pharmacia). Elution is carried out using a 500 mM imidazole step. The His-RXRalpha-LBD protein fractions are desalinated using a HiTrap desalting column (Pharmacia) and the protein concentration is determined using a standard assay. A description of the SPA assay format can be found in Mukheriee R et al., J Steroid Biochem Mol Biol (2002) 81:217-225.

[2] = tested on: Adipose Protein 2 (aP2) expression; assay: Stimulation of aP2 expression in 3T3-L1 cells (real time PCR); assay type: cell-based, mouse; settings: 10 μmol/L
Text: as §1, §2, §3
RNA isolation, reverse transcription and quantification of gene expression are carried out using an ABI 7000 sequence detection system-for real time PCR (described in Janke et al, Diabetes 51:1699-707, 2002). The endogenous control used for the real time PCR consists of the household genes 18S rRNA and hypoxanthine guanine phosphoribosyl transferase (hprt).

PPARgamma = assay: Transcription reporter assay (PPRE-luciferase) in 3T3-L1 adipocytes; assay type: cell-based, mouse; settings: 10 μmol/L, 24 hours
Description: 3T3-L1 adipocytes (day 4) or PC12W cells are transfected with Lipofectamine 2000 (Invitrogen) in the presence of 1 μg (for 3T3-L1 cells) or 50 ng (for PC12W cells) of a reporter construct, PPARgamma2 and RXRalpha expression vectors and 10 ng of a Renilla Luciferase Reporter control vector. The reporter construct is a fusion of 3xAcyl-CoA oxidase PPAR Response Element (PPRE) with Tk-luciferase. […] The Luciferase Reporter control vector is the plasmid pRL-CMV (Promega).

CCCc1nc2c(C)cc(-c3nc4ccccc4n3C)cc2n1Cc1ccc(-c2ccccc2C(=O)O)cc1 [telmisartan]
differentiation of 3T3-L1 adipocytes (3T3-L1 adipocytes): promoted | accumulation of lipids (Oil Red-O staining) (3T3-L1 adipocytes; 10 μmol/L, day 4): increased accumulation of lipids | SPA signal, bound 3H-rosiglitazone (MW) ([1]; 1.00E−04 M test substance): 545 | SPA signal, bound 3H-rosiglitazone (MW) ([1]; 1.00E−05 M test substance): 703 | SPA signal, bound 3H-rosiglitazone (MW) ([1]; 1.00E−06 M test substance): 818 | SPA signal, bound 3H-rosiglitazone (MW) ([1]; 1.00E−07 M test substance): 837 | SPA signal, bound 3H-rosiglitazone (MW) ([1]; 3.00E−05 M test substance): 691 | SPA signal, bound 3H-rosiglitazone (MW) ([1]; 3.00E−06 M test substance): 818 | SPA signal, bound 3H-rosiglitazone (MW) ([1]; 3.00E−07 M test substance): 802 | stimulation of aP2 expression, factor [2]: 3.1±0.3 | induction of the transcriptional activity of PPARgamma, factor (PPARgamma): 3.4±0.9
